Activity calls are given as the source filed them. The rule behind the calls is not given here. Where only a bound is given, the exact number is not on record here.

As usually defined, the AC50 is the concentration at which the activity in the assay is half-maximal.

A short description of one experiment: growth inhibition of yeast carrying parasite Hsp90, dose response, anti-malarial Hsp90 inhibitor project, ATP luminescence, 48 h, cherry-picked samples (AID 540268).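 For activity change, negative = inhibition: 0% = neutral control wells and -100% = positive control wells.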 The following applies: yeast expressing the parasite Hsp90, ATP luminescence.
As to `Cc1nn(-c2nc3ccccc3[nH]2)c(=O)c2ccccc12`, the AC50 was 1.84 µM.

With `Cc1ccc(S(=O)(=O)N(C(=O)c2ccncc2)c2ccc(OC(=O)c3ccncc3)cc2)c(C)c1`, the concentration at half-maximal activity (AC50) is 3.45 µM.

On to `Cc1c(Cc2ccccc2)c(NCCN(C)C)n2c(nc3ccccc32)c1C#N`, for which the AC50 is 0.701 µM.

Turning to `CCN1/C(=C/c2ccc3cc(C)ccc3[n+]2CC)Sc2cc(C)c(C)cc21`, the AC50 is 3.25 µM.

For the molecule `COc1ccc(S(=O)(=O)N(C(=O)c2ccncc2)c2ccc(OC(=O)c3ccncc3)cc2)cc1`, the AC50 is 1.68 µM.

Consider `COc1ccc(C(=O)/C=C2\C(=O)Nc3ccc(Br)cc32)cc1`, for which the AC50 is 2.22 µM.

For the molecule `Cc1c(CCCl)c(Cl)n2c(nc3ccccc32)c1C#N`, the AC50 is 3.39 µM.

On to `O=C(OCC(=O)C12CC3CC(CC(C3)C1)C2)c1ccc(O)cc1`, for which the half-maximal activity concentration (AC50) was 1.06 µM.

With `Oc1ccccc1C1=NN(c2ccccc2)C(c2ccccc2)C1` (configuration not stated), the AC50 was 4.3 µM.

Turning to `CCN(C(=O)C1CCCN(c2nc(-c3ccc(OC)cc3)no2)C1)c1ccc(OC)cc1` (configuration not stated), the AC50 is 4.85 µM.

As to `Oc1ccc(Cl)cc1/C=C/c1ccc2cccc(O)c2n1`, the AC50 is 2.66 µM.

Regarding `Cc1c(OCC(=O)C(C)(C)C)ccc2c(-c3ccccc3)cc(=O)oc12`, the concentration at half-maximal activity (AC50) is 8.35 µM.

Turning to `O=C(Nc1nc(-c2ccccc2)cs1)c1ccccc1NS(=O)(=O)c1ccc(F)cc1`, the AC50 was 4.09 µM.

Consider `O=C(C1CCN(C2CC(=O)N(c3cccc(Cl)c3)C2=O)CC1)N1CCCC1` (configuration not stated), for which the AC50 is 3.94 µM.

For `CC1=CC(=O)C=C(C)C1=NOS(=O)(=O)c1ccccc1`, the AC50 was 1.4 µM.

As to `COc1ccccc1OCCNC(=O)c1ccc(Br)cc1`, the AC50 was less than 0.195 µM.

For `O=C1[C@@H]2C(c3cccnc3)=NO[C@@H]2C(=O)N1c1ccc(Br)cc1`, the AC50 was 3.1 µM.

For the molecule `Cc1ccc(C(C[N+](=O)[O-])c2c(N)n(C)c(=O)n(C)c2=O)cc1` (configuration not stated), the AC50 was 3.33 µM.

Take `Cn1c2ccccc2c2ccc3c(c21)C(=O)C=CC3=O`: the AC50 was 8.02 µM.

On to `O=C(N/N=C/c1ccc(O)c2ncccc12)c1cccc(Br)c1`, for which the AC50 was 5.08 µM.

In the case of `O=C(N/N=C/c1ccccn1)c1cc(-c2ccc(Br)cc2)nc2ccccc12`, the AC50 was 5.33 µM.

On to `CC(=O)N(C(C)=O)N1C(=O)/C(=C/c2ccc(Cl)cc2)SC1=S`, for which the AC50 was 3.28 µM.

On to `O=c1[nH]c(-c2ccccn2)nc(C(F)(F)F)c1Br`, for which the AC50 was 4 µM.

In the case of `Cc1ccc(Nc2nc(N)c([N+](=O)[O-])c(N3CCCC(C)C3)n2)cc1C` (configuration not stated), the AC50 is 3.73 µM.

Regarding `Cc1ccc(-n2c(Cl)c(Cl)nc(Cl)c2=O)cc1`, the AC50 was 1.2 µM.

Take `Cc1[nH]n(-c2ccccc2)c(=O)c1C(C[N+](=O)[O-])c1ccc(Br)cc1` (configuration not stated): the AC50 is 8.54 µM.

As for `CC(=NNC(=S)Nc1ccccc1Cl)c1ccccn1`, the AC50 is 3.91 µM.

For `Cc1c(C)c2cccnc2c2ncccc12`, the AC50 is 4.22 µM.

Regarding `O=[N+]([O-])/C=C\c1ccc(N2CCCC2)c(F)c1`, the AC50 is 6.27 µM.

With `O=C1Nc2ccc(Br)cc2/C1=C/C1CC=CCC1` (configuration not stated), the AC50 is 8.99 µM.

Consider `O=C(NCC1CCCO1)c1cc([N+](=O)[O-])ccc1N1CCC(Cc2ccccc2)CC1` (configuration not stated), for which the half-maximal activity concentration (AC50) was 4.06 µM.

Consider `Cc1sc2nc(C3CC3)nc(SCC(=O)NCc3ccco3)c2c1C`, for which the AC50 is 7.33 µM.

For the molecule `COc1ccc(C(=O)N/N=C/c2sc3ccccc3c2O)cc1`, the AC50 is 2.35 µM.

For the molecule `O=C(/C(=C/O)N=Nc1cccc(C(F)(F)F)c1)c1ccccc1`, the AC50 was 4.14 µM.

Consider `CCOC(=O)COc1ccc2ccccc2c1/C=C/[N+](=O)[O-]`, for which the AC50 is 4.46 µM.

In the case of `Cc1c(C(=O)NCCSCc2cccc(C(F)(F)F)c2)cnn1-c1ccc(Cl)cc1`, the AC50 is 8.59 µM.

Regarding `COc1ccc(O)c(-c2cc(-c3cccc(Br)c3)n[nH]2)c1`, the AC50 is 7.23 µM.

Regarding `CC(=O)NC(c1ccccc1)c1cc(Cl)c2cccnc2c1O` (configuration not stated), the AC50 is 7.28 µM.

In the case of `O=C(OCc1ccccc1)c1ccc(NCc2cc(O)ccc2O)cc1`, the AC50 was 5.09 µM.

As for `CCn1c(CNc2ccc(Cl)cc2)nnc1SCc1ccc(C)cc1`, the AC50 was 8.23 µM.

As for `Cc1ccc(N=Cc2c(C)[nH]n(-c3nc4ccccc4[nH]3)c2=O)cc1`, the AC50 was 2.4 µM.

Consider `Cc1onc(-c2ccccc2)c1C(=O)NC(=S)NNC(=O)c1ccccc1O`, for which the AC50 was 2.24 µM.

Regarding `C=CC(n1cncn1)C(O)(c1ccccc1)c1ccccc1` (configuration not stated), the AC50 was 1.03 µM.

In the case of `Oc1ccc(Cl)cc1Sc1cc(Cl)ccc1O`, the AC50 was 3.07 µM.

Turning to `COc1ccc(N2CCN(C(=O)c3ccc(Br)cc3)CC2)c([N+](=O)[O-])c1`, the AC50 is 0.497 µM.

With `Oc1c(C(c2ccccc2)N2CCOCC2)ccc2ccccc12` (configuration not stated), the AC50 was 6.53 µM.

With `CC(CCc1ccccc1)NC(=O)c1ccc(Br)cc1` (configuration not stated), the AC50 was 4.71 µM.

`CCN1C/C(=C/c2cccc([N+](=O)[O-])c2)C(=O)/C(=C/c2cccc([N+](=O)[O-])c2)C1`: the AC50 is 3.22 µM.

`CCC1C/C(=C\c2cccnc2)C(=O)/C(=C/c2cccnc2)C1` (configuration not stated): the AC50 is 9.06 µM.

Regarding `CC1=C/C(=N\OS(=O)(=O)c2ccccc2)C(C(C)C)=CC1=O`, the AC50 is 0.827 µM.

On to `CCOC(=O)C1CCCN(C2CC(=O)N(c3cccc(C(F)(F)F)c3)C2=O)C1` (configuration not stated), for which the AC50 is 4.24 µM.

Regarding `CCCC(=O)NC(c1ccc(Cl)cc1)c1ccc2cccnc2c1O` (configuration not stated), the AC50 was 7.47 µM.

On to `CCCC(=O)NC(c1ccc2c(c1)OCO2)c1cc(Cl)c2cccnc2c1O` (configuration not stated), for which the AC50 is 4.45 µM.

Turning to `Cc1cccnc1Nc1nc(-c2ccccn2)cs1`, the AC50 was 4.32 µM.

Consider `C[C@@]12C(=O)Nc3ccc(Br)cc3C(=O)N1[C@H]1c3ccccc3OC[C@@H]1[C@@H]2c1ccccc1`, for which the concentration at half-maximal activity (AC50) is 0.404 µM.

Consider `CCN1/C(=C/c2ccc3cc(C)ccc3[n+]2CC)Sc2ccccc21`, for which the AC50 was 8.11 µM.

Take `Oc1ccc(/C=N/N(Cc2ccccc2)c2ccccc2)cc1`: the AC50 is 8.09 µM.

Take `Cc1ccc(-c2nc3cccnc3s2)cc1NS(=O)(=O)c1ccc2c(c1)OCCO2`: the AC50 was 4.12 µM.

`CC(C)(C)C(O)C(Cc1ccccc1Cl)n1cncn1` (configuration not stated): the AC50 was less than 0.195 µM.

Regarding `CC(C)(C)c1nnc(N/N=C/c2cc(Br)ccc2O)n(N)c1=O`, the AC50 was 4.92 µM.

Turning to `COc1cc(/C=C2\SC(=S)N(Nc3ncc(C(F)(F)F)cc3Cl)C2=O)ccc1O`, the AC50 was 25.8 µM.

Regarding `O=S(=O)(NC1CC2CCC1C2)c1ccc(Cl)cc1` (configuration not stated), the AC50 was 3.46 µM.

On to `CC1=C(C(=O)OCc2ccccc2)C(/C=C/c2ccccc2)NC(=S)N1` (configuration not stated), for which the AC50 is less than 0.195 µM.

As to `Cc1cccc(N2CCN(S(=O)(=O)c3c(C)noc3/C=C/N(C)C)CC2)c1C`, the AC50 was 8.39 µM.

Regarding `Cc1ccc(N/N=C(\C#N)C(N)=S)c(C)c1`, the AC50 was 1.32 µM.

Consider `CN(C)c1ccc(C=c2c3ccccc3n3c2cc(-c2ccccc2)[n+]3C)cc1`, for which the AC50 is 4.33 µM.

On to `O=C(CN1CCN(c2ncc(C(F)(F)F)cc2Cl)CC1)NCCNc1ncc(C(F)(F)F)cc1Cl`, for which the AC50 is 3.49 µM.

Regarding `CC1C/C(=C/c2ccncc2)C(=O)/C(=C/c2ccncc2)C1` (configuration not stated), the AC50 is 2.83 µM.

In the case of `O=C(C#Cc1ccccc1)c1ccc([N+](=O)[O-])cc1`, the AC50 is 2.1 µM.

As for `CCn1c(CNc2ccc(Cl)cc2)nnc1SCc1ccc(Cl)cc1`, the concentration at half-maximal activity (AC50) was 4.37 µM.

On to `O=C1C=CC(=O)N1CCCCCCCCCCN1C(=O)C=CC1=O`, for which the half-maximal activity concentration (AC50) is 0.837 µM.

As to `CCCCCCCCCCOC(=O)Cn1c(COc2ccc(C)cc2)[n+](C)c2ccccc21`, the AC50 is 25.8 µM.

Turning to `CCOC(=O)C(=Cc1ccc(-n2cncn2)cc1)C(=O)OCC`, the AC50 was 6.51 µM.

`O=C(Nc1nnc(SCc2ccc(F)cc2)s1)c1ccccn1`: the AC50 was 4.41 µM.

On to `COC(=O)c1ccc(NC(=O)c2nc(S(=O)(=O)Cc3cccc(C)c3)ncc2Cl)cc1`, for which the concentration at half-maximal activity (AC50) is 3.99 µM.

Regarding `CC(C)(C)C(O)C(Oc1ccc(Cl)cc1)n1cncn1` (configuration not stated), the AC50 was less than 0.195 µM.

On to `O=C(/C=C/c1ccccc1)CCN1CCCCC1`, for which the AC50 is 4.02 µM.

In the case of `O=C(/C=C/c1ccccc1)c1cc(Br)ccc(=O)c1O`, the AC50 is 1.51 µM.

For the molecule `CC(C)(C)c1cc(C(c2cccnc2)N2CCN(CCO)CC2)cc(C(C)(C)C)c1O` (configuration not stated), the AC50 was 25 µM.

With `O=C1/C(=C\c2ccc(O)c(O)c2)SC(=S)N1Cc1ccccc1`, the AC50 was 4.26 µM.

`COc1ccc(CCN2C(=O)C=CC2=O)cc1OC`: the AC50 is 1.41 µM.

Consider `CCCNC(=O)c1nnsc1S(=O)c1ccc(Cl)cc1` (configuration not stated), for which the AC50 is 1.53 µM.

As for `CC1=CC2C(C(O)CC3(C)C2CC(C)C32OCOC23COCO3)C2(C)C/C(=C\O)C(=O)C=C12` (configuration not stated), the AC50 was 3.13 µM.

As for `O=C1CC(N2CCN(c3nc4ccccc4s3)CC2)C(=O)N1Cc1cccs1` (configuration not stated), the AC50 is 4.66 µM.

On to `CCCCC(=O)NC(c1ccc(Cl)cc1)c1ccc2cccnc2c1O` (configuration not stated), for which the AC50 was 16.4 µM.

Turning to `O=C(NNC1=C(C(=O)C(F)(F)F)CCC1)c1ccc(Cl)cc1`, the AC50 was 1.34 µM.

For `Cc1nn2c(NCc3ccccn3)cc(C(C)(C)C)nc2c1-c1ccccc1`, the AC50 was 3.02 µM.

In the case of `O=S(=O)(/C=C/c1ccccc1)NC1CCCCCCC1`, the AC50 is 1.18 µM.

As for `CCOC(=O)C1=C(CC)Nc2ccccc2N=C1NC(=O)Nc1ccc(Cl)c(Cl)c1`, the AC50 is 1.43 µM.

For `O=C1C(Cl)=C(NCCc2ccccc2)C(=O)c2ccccc21`, the AC50 is 0.556 µM.

Still in this experiment, the particulars now being: yeast expressing the parasite Hsp90, ATP luminescence, at 26 µM (top of the series).
As for `CC(C)(C)c1nn(-c2ccccc2)c2[nH]c(=O)c(CNc3ccc4c(c3)OCCO4)cc12`, the activity change, negative = inhibition was -106% (inactive).

As to `CC1(C)N=C(SCC(=O)Nc2ccc(Cl)cc2Cl)C(c2ccccc2)=N1`, the activity change, negative = inhibition was 20.1% (inactive).

Consider `N#C/C(=C/c1ccc(O)cc1)C(=O)NCc1ccc(Cl)cc1`, for which the activity change, negative = inhibition is 10.6% (inactive).

Turning to `Cc1cc(/C=c2\sc3nc4ccccc4n3c2=O)c(C)n1-c1ccc(C(=O)O)cc1`, the activity change, negative = inhibition is 22.6% (inactive).

`O=C(CSc1ccc(-c2ccccn2)nn1)Nc1ccccc1`: the activity change, negative = inhibition is -18.1% (inactive).

As for `Cc1ccc2nc(-c3ccc(NS(=O)(=O)c4ccc(F)cc4)cc3)sc2c1`, the activity change, negative = inhibition was 144% (inactive).

Turning to `CCCCN1C(=O)/C(=C/C=C2\Oc3ccccc3N2CC)SC1=S`, the activity change, negative = inhibition was 32.9% (inactive).

Source of the values: PubChem BioAssay AID540268 (Broad Institute, 2011).
